Data as given in article PMC8661032, “Broad-Spectrum Antibacterial Peptide Kills Extracellular and Intracellular Bacteria Without Affecting Epithelialization” (Frontiers in Microbiology, 2021).
In brackets after ≈: the same amount, converted by molar mass. Residues, ends and D or L forms follow the SMILES beside them.

Assays:
E. coli [1] = experiment: microbe, parasite or virus in culture; conditions: K-12 MG1655; CLSI broth microdilution, CAMHB, 37°C, 24 h, visible growth; net peptide concentration
Protocol: (§1) Briefly, bacterial colonies from blood agar plates were suspended and grown in Cation-Adjusted Mueller-Hinton Broth (CAMHB, […] Ca^2+, […] Mg^2+). The bacterial suspension was adjusted to 0.5 McFarland standard (∼1 × 10^8 colony-forming units (CFU)/ml) and serial diluted 1:200 in CAMHB (∼5 × 10^5 CFU/mL). […] The suspension was plated out on blood agar plates to confirm the CFU/ml. Both the microtiter plates and the blood agar plates were incubated at 37°C for 24 h.

E. coli [2] = experiment: Growth inhibition assay (OD600 over 24 h); format: cell-based, Escherichia coli; parameters: Reduction of viability E. coli (60 μg/ml): key to the marks not given beside the values; conditions: 60 μg/ml peptide, LB medium, OD600 every hour over 24 h, relative to untreated control
Protocol: An overnight culture of Escherichia coli was diluted 1:100 in Luria-Bertani (LB) medium and allowed to grow until an optical density (OD) at 600 nm (OD600) of 0.06–0.1. APIM-peptides were prepared by serial dilution in Milli-Q H2O and kept at 4°C. Fresh LB medium (60 μl) was added to a flat-bottom microtiter plate. The bacterial suspension was diluted 1:100 in LB, and 75 μl of this suspension was added to the wells. Finally, 15 μl of APIM-peptide solution (to final concentrations 60, 120, and 240 μg/ml) or distilled water (positive control) was added to the wells, reaching a total volume of 150 μl per well. Data are presented only for the dose that separated the effect of the different peptides, i.e., 60 μg/ml. A blank sterile medium was used as negative control. The plates were incubated with shaking at 510 rpm at 37°C inside a plate reader (TECAN, Spark®), and OD was read every hour over a period of 24 h.
The MIC for E. coli in LB medium is higher than that in CAMHB; thus, concentrations higher than the MIC given in Table 2 are used in the growth inhibition and mutagenesis assays. […]
E. coli. Growth of E. coli in LB medium over 24 hours (Optical Density (OD) 600 nm) after addition
of APIM-peptide variants 1-5 (60 µg/mL) at time t=0 (see Table 2). Negative (-) control is no
bacteria added, positive (+) control is untreated bacteria.
highest inhibition of growth.
control (black filled line).

[3] = system: S. epidermidis MRSE (SO-SEP9-1); conditions: SO-SEP9-1, 24 h
Protocol: as §1

HEK293 cells = system: HEK293 cells
Protocol: HEK293 cells (6,000 cells/well) were seeded in 96-well microtiter plates. After 4 h, APIM-peptides (12–48 μg/ml) were added, and the cells were incubated without change of media for up to 4 days. Viability was measured using the 3-(4,5-dimethylthiazol-2-yl)-2,5-diphenyltetrazolium bromide (MTT) assay as described ([Gilljam et al., 2009]).
(1 picture or pasted object on this page, not shown here)

E. coli [4] = experiment: Rifampicin (RifR) mutagenesis assay after UV-C; format: cell-based, Escherichia coli
Protocol: The rifampicin (Rif^R) mutagenesis assay was performed as described ([Nedal et al., 2020]). Briefly, an overnight culture of E. coli was diluted 1:1,000 and grown until an OD600 of 0.01. APIM-peptides (20 μg/ml) were added to LB media with glass beads (for uniform distribution of APIM-peptides) and incubated for 30 min at 37°C. The pellets were next collected, resuspended in 500 μl PBS, and exposed to UV-C (20 mJ/cm^2) in a six-well plate at 4°C. The unexposed bacteria (-UV) were otherwise handled exactly like the UV-exposed bacteria. Next, the cells were resuspended in LB media and incubated in a rotary shaker at 37°C at 250 rpm for 2 h before being harvested, diluted, and plated on LB with soft agar with and without rifampicin (100 μg/ml). Mutation frequency, Rif^R/10^8, is obtained as follows: (number of colonies on the rifampicin plate (Rif^R)/(number of colonies on LB plates without antibiotics), per milliliter of bacterial suspension. […]
mutagenesis in E. coli more efficiently than the other peptide variants.
Increase in mutation frequencies after treatment with UV-C (20 mJ/cm2) relative to spontaneous mutations frequencies using the RifR assay were determined. This increase is set to 100% for untreated control, and % reduction after addition of peptides 1-5 (20 μg/mL) are shown. Mean ± SD from three independent experiments. * p<0.05, ** p<0.005

S. aureus = experiment: microbe, parasite or virus in culture; conditions: for MIC: CAMHB, 24 h, three independent experiments
Protocol: as §1

[5] = Staphylococcus aureus, ATCC29213, 24 h, Reference strain ATCC 29213
[6] = Staphylococcus aureus, MRSA, Clinical isolate SO-SAU19-1 (MRSA)

| SMILES | MIC E. coli (E. coli [1]) [µg/mL] | MIC S. epidermidis MRSE [3] [µg/mL] | Combination effect with 0.5× MIC betatide (S. aureus; ATCC 29213) | Combination effect with 0.5× MIC betatide (S. aureus; SO-SAU19-1 (MRSA)) | MIC (S. aureus; [5]) [µg/mL] | MIC (S. aureus; [6]) [µg/mL] | also measured |
| --- | --- | --- | --- | --- | --- | --- | --- |
| CC[C@H](C)[C@H](NC(=O)CNC(=O)[C@H](CCCCN)NC(=O)[C@@H](NC(=O)[C@H](CC(C)C)NC(=O)[C@H](Cc1c[nH]c2ccccc12)NC(=O)[C@H](CCCNC(=N)N)NC(=O)[C@H](CC(=O)O)NC(=O)[C@H](CCSC)NC(C)=O)C(C)C)C(=O)N[C@@H](CC(C)C)C(=O)N[C@@H](CCC(N)=O)C(=O)N[C@@H](Cc1c[nH]c2ccccc12)C(=O)N[C@@H](CCCNC(=N)N)C(=O)N[C@@H](CCCCN)C(=O)N[C@H](C(=O)N[C@@H](CCCNC(=N)N)C(=O)N[C@@H](CCCNC(=N)N)C(=O)N[C@@H](CCCNC(=N)N)C(=O)N[C@@H](CCCNC(=N)N)C(=O)N[C@@H](CCCNC(=N)N)C(=O)N[C@@H](CCCNC(=N)N)C(=O)N[C@@H](CCCNC(=N)N)C(=O)N[C@@H](CCCNC(=N)N)C(=O)N[C@@H](CCCNC(=N)N)C(N)=O)[C@@H](C)CC [Peptide 4] (Ac-MDRWLVKGILQWRKIRRRRRRRRR-NH2) | 32 (≈ 9.44 µM) | 16 (≈ 4.72 µM) | – | – | – | – | Reduction of viability E. coli (60 μg/ml) (E. coli [2]): ++ |
| CC[C@H](C)[C@H](NC(=O)CNC(=O)[C@H](CCCCN)NC(=O)[C@@H](NC(=O)[C@H](CC(C)C)NC(=O)[C@H](Cc1c[nH]c2ccccc12)NC(=O)[C@H](CCCNC(=N)N)NC(=O)[C@H](CC(=O)O)NC(=O)[C@H](CCSC)NC(C)=O)C(C)C)C(=O)N[C@@H](CC(C)C)C(=O)N[C@@H](CCC(N)=O)C(=O)N[C@@H](Cc1c[nH]c2ccccc12)C(=O)N[C@@H](CCCNC(=N)N)C(=O)N[C@@H](CCCCN)C(=O)N[C@H](C(=O)N[C@@H](CCCNC(=N)N)C(=O)N[C@@H](CCCNC(=N)N)C(=O)N[C@@H](CCCNC(=N)N)C(=O)N[C@@H](CCCNC(=N)N)C(=O)N[C@@H](CCCNC(=N)N)C(=O)N[C@@H](CCCNC(=N)N)C(=O)N[C@@H](CCCNC(=N)N)C(=O)N[C@@H](CCCNC(=N)N)C(=O)N[C@@H](CCCNC(=N)N)C(=O)N[C@@H](CCCNC(=N)N)C(N)=O)[C@@H](C)CC [Peptide 3] (Ac-MDRWLVKGILQWRKIRRRRRRRRRR-NH2) | 32 (≈ 9.03 µM) | 16 (≈ 4.51 µM) | – | – | – | – | Reduction of viability HEK293 (24 μg/ml) (HEK293 cells): +; UV-induced mutation frequencies relative to control (E. coli [4]; 20 μg/mL, UV-C 20 mJ/cm2, RifR assay, three independent experiments): significantly reduced; Reduction of mutation frequency E. coli (20 μg/ml) (E. coli [4]; 20 μg/ml peptide, UV-C 20 mJ/cm^2, RifR assay, relative to untreated control): ++ |
| CC(=O)O[C@H]1C[C@@]2(C)[C@@H](C[C@@H](O)[C@H]3[C@@]4(C)CC[C@@H](O)[C@@H](C)[C@@H]4CC[C@@]32C)/C1=C(\CCC=C(C)C)C(=O)O [Fusidic acid, fusidic acid] | – | – | Additive, 2× | Additive 8× | 0.25 (≈ 0.484 µM) | 0.25 (≈ 0.484 µM) | Combination effect with 0.5× MIC betatide (S. aureus; SO-SAU 19-2 (FR-MRSA)): Additive 2×; Combination effect with 0.5× MIC betatide (S. aureus; SO-SAU 19-3 (FR-MRSA)): Additive 4×; Combination effect with 0.5× MIC betatide (S. aureus; SO-SAU 19-4 (FR-MRSA)): Additive 2×; MIC (S. aureus; SO-SAU 19-4 (FR-MRSA)): 8 µg/mL (≈ 15.5 µM); MIC (S. aureus; Staphylococcus aureus, MRSA, SO-SAU 19-2 (FR-MRSA)): 8 µg/mL (≈ 15.5 µM); reduction in MIC of fusidic acid when combined with 0.5× MIC betatide (S. aureus; fusidic acid-sensitive MRSA strain): 8 × |
| COc1cccc(OC)c1C(=O)N[C@@H]1C(=O)N2[C@@H]1SC(C)(C)[C@@H]2C(=O)O [Methicillin, methicillin] | – | – | Additive 2× | Additive 4× | 1 (≈ 2.63 µM) | 8 (≈ 21 µM) | – |
| CO[C@@]1(NC(=O)Cc2cccs2)C(=O)N2C(C(=O)O)=C(COC(N)=O)CS[C@@H]21 [Cefoxitin, cefoxitin] | – | – | None | Additive 2× | 4 (≈ 9.36 µM) | 32 (≈ 74.9 µM) | – |
